Measured values from the NIST ThermoML archive (doi:10.1016/j.jct.2016.12.019).
Numbers after ± are expanded uncertainties.

Key:
[1] = 100 kPa, Liquid; for viscosity: Capillary tube (Ostwald / Ubbelohde) method; for speed of sound: Frequency=2 MHz, Linear variable-path acoustic interferometer; for mass density: Vibrating tube method
[2] = xn = mol fraction of the nth substance listed; conditions: 100 kPa, Liquid, x2 = 0; for viscosity: Capillary tube (Ostwald / Ubbelohde) method; for speed of sound: Frequency=2 MHz, Linear variable-path acoustic interferometer; for mass density: Vibrating tube method

Compound | viscosity ([1]; 303.15 K) [mPa·s] | speed of sound ([1]; 303.15 K) [m/s] | mass density ([1]; 303.15 K) [kg/m3] | viscosity ([1]; 308.15 K) [mPa·s] | speed of sound ([1]; 308.15 K) [m/s] | mass density ([1]; 308.15 K) [kg/m3] | viscosity ([1]; 313.15 K) [mPa·s] | speed of sound ([1]; 313.15 K) [m/s] | viscosity ([2]; 303.15 K) [mPa·s] | speed of sound ([2]; 303.15 K) [m/s] | mass density ([2]; 303.15 K) [kg/m3] | viscosity ([2]; 308.15 K) [mPa·s] | speed of sound ([2]; 308.15 K) [m/s] | mass density ([2]; 308.15 K) [kg/m3] | viscosity ([2]; 313.15 K) [mPa·s] | speed of sound ([2]; 313.15 K) [m/s] | mass density ([2]; 313.15 K) [kg/m3] | viscosity ([2]; 318.15 K) [mPa·s] | speed of sound ([2]; 318.15 K) [m/s] | mass density ([2]; 318.15 K) [kg/m3] | other results
CCN(CC)c1ccccc1 [N,N-diethylaniline] | 1.711 ± 0.046 | 1432 ± 8.7 | 925.8 ± 1.1 | 1.537 ± 0.041 | 1416 ± 8.6 | 921.8 ± 1.1 | 1.4 ± 0.038 | 1398 ± 8.5 |  |  |  |  |  |  |  |  |  |  |  |  | mass density ([1]; 313.15 K): 917.9 ± 1.1 kg/m3; viscosity ([1]; 318.15 K): 1.276 ± 0.034 mPa·s; speed of sound ([1]; 318.15 K): 1378 ± 8.4 m/s; mass density ([1]; 318.15 K): 913.8 ± 1.1 kg/m3
CCCCCCCCCCO [decan-1-ol] + CCN(CC)c1ccccc1 |  |  |  |  |  |  |  |  | 9.751 ± 0.27 | 1363.5 ± 8.3 | 822.89 ± 1.1 | 8.138 ± 0.22 | 1344.2 ± 8.2 | 819.54 ± 1.1 | 6.846 ± 0.19 | 1328.5 ± 8.1 | 815.95 ± 1.1 | 5.879 ± 0.16 | 1320.5 ± 8 | 811.35 ± 1.1 | 
CCCCCCCCCO [nonan-1-ol] | 7.809 ± 0.21 | 1357 ± 8.3 | 821.36 ± 1.1 | 6.499 ± 0.18 | 1334 ± 8.2 | 817.54 ± 1.1 | 5.665 ± 0.15 | 1313 ± 8 |  |  |  |  |  |  |  |  |  |  |  |  | mass density ([1]; 313.15 K): 814.05 ± 1.1 kg/m3; viscosity ([1]; 318.15 K): 4.676 ± 0.13 mPa·s; speed of sound ([1]; 318.15 K): 1293.5 ± 7.9 m/s; mass density ([1]; 318.15 K): 808.97 ± 1.1 kg/m3
CCCCCCCCCO [nonan-1-ol] + CCN(CC)c1ccccc1 |  |  |  |  |  |  |  |  | 7.809 ± 0.21 | 1357 ± 8.3 | 821.36 ± 1.1 | 6.499 ± 0.18 | 1334 ± 8.2 | 817.54 ± 1.1 | 5.665 ± 0.15 | 1313 ± 8 | 814.05 ± 1.1 | 4.676 ± 0.13 | 1293.5 ± 7.9 | 808.97 ± 1.1 | 
CCCCCCCCO [octan-1-ol] + CCN(CC)c1ccccc1 |  |  |  |  |  |  |  |  | 6.405 ± 0.17 | 1333.5 ± 8.2 | 818.25 ± 1.1 | 5.422 ± 0.15 | 1312.5 ± 8 | 814.72 ± 1.1 | 4.625 ± 0.13 | 1295.4 ± 7.9 | 810.07 ± 1.1 | 4.051 ± 0.11 | 1282.5 ± 7.8 | 805.52 ± 1.1 | 
